These results are taken from patent EP4692071A1, “PHOTOCHROMIC COMPOUND, NAPHTHOL DERIVATIVE, CURABLE COMPOSITION, OPTICAL ARTICLE, LENS, AND EYEGLASS” (TOKUYAMA CORPORATION, priority 2023, dated 2024).

What all share (type): physicochemical
The nature of data set [1]: Maximum absorption wavelength (λmax) after color development, spectrophotometer MCPD3000. The settings on record: for Maximum absorption wavelength: after color development. The procedure, abridged: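 Read-out: absorbance at λmax, multichannel photodetector spectrophotometer. Colour density = ε(240) − ε(0), 240 s light, 23°C. τ1/2 = time for ε(240) − ε(0) to halve after light off. Residual rate compares density before and after 90 h xenon weathering.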

Data set [2] is described as follows: High-temperature color development rate (A35/A23×100), temperature dependency. The procedure, abridged: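 The sample was irradiated with light for 240 seconds at 23°C and separately at 35°C. The gain in absorbance over the unirradiated state, ε(240)−ε(0), gave the color optical densities A23 and A35. A35 divided by A23, multiplied by 100, expressed how well color development holds up at the higher temperature.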

The nature of data set [3]: 23°C color optical density (A23): absorbancy difference ε(240)-ε(0) after 240 s light irradiation at 23°C. The settings on record: 240 s irradiation. The method, then: (§1) • [1] Maximum Absorption Wavelength (λmax): The maximum absorption wavelength after color development, measured using a spectrophotometer (instantaneous multichannel photodetector MCPD3000) manufactured by Otsuka Electronics Co., Ltd. was used as an indicator for the color tone during the color development. • [2] 23°C Color Optical Density (A23): A difference between an absorbancy measured after light irradiation at 23°C for 240 seconds {ε(240)} and an absorbancy without light irradiation ε(0) at the maximum absorption wavelength was used as an indicator for the color optical density. […] 35°C Color Optical Density (A35): A difference between an absorbancy measured after light irradiation at 35°C for 240 seconds {ε(240)} and an absorbancy without light irradiation ε(0) at the first and second absorption wavelengths was used as an indicator for the color optical density. […] 23°C color fading half-life [τ1/2 (sec.)]: A time required for the absorbancy of the sample at the maximum absorption wavelength to decrease to 1/2 of {ε(240)-ε(0)} when the light irradiation is terminated after the light irradiation at 23°C for 240 seconds, was used as an indicator for the color fading speed. The shorter this time, the higher the color fading speed. • [6] Residual rate (A90/A0×100): The obtained photochromic plastic lens was subjected to accelerated deterioration using a xenon weather meter X25 manufactured by Suga Test Instruments Co., Ltd. for 90 hours. Subsequently, the color optical density was evaluated before and after the test, then a color optical density before the test (A0) and a color optical density after the test (A90) were measured, and a ratio (A90/A0) was defined as a residual rate. The residual rate was used as an indicator for a color developing durability. The higher the residual rate, the higher the color developing durability.

Data set [4] is described as follows: Residual rate (A90/A0×100) after 90 h accelerated deterioration in xenon weather meter X25, color developing durability. The settings on record: for Residual rate: after 90 h accelerated deterioration; for Residual rate (%): xenon weather meter 90 hours. The method in brief:
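Each lens is coloured by 240 s of light at 23°C. Optical density is the irradiated-minus-dark absorbance at the maximum wavelength, and the half-life tracks the post-irradiation fade. A 90 h xenon weather-meter exposure precedes the second density reading used for the residual rate.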

A short description of data set [5]: 35°C color optical density (A35): absorbancy difference ε(240)-ε(0) after 240 s light irradiation at 35°C. The settings on record: 240 s irradiation. The method, then: as §1
Setting [6] is: binder sheet (binder method), urethaneurea resin photochromic layer between polycarbonate sheets, 0.25 mmol per 100 parts by mass resin.
Where [7] appears, read: photochromic laminate by coating method, 40 µm photochromic layer on thiourethane lens, 0.25 mmol compound per 100 g monomers.
The mark [8] stands for this setting: photochromic laminate prepared by coating method.
The mark [9] stands for this setting: photochromic laminate by coating method, comparative compounds.
[10] abbreviates: photochromic laminate by coating method.
Setting [11] is: photochromic cured product by kneading method, 1 mm thick thiourethane, 0.106 mmol per 100 g monomers.
Setting [12] is: cured product by kneading method, 1 mm.
[13] abbreviates: photochromic laminate by coating method, at the maximum absorption wavelength.

For the molecule `COc1ccc(C2(c3ccc(OC)cc3)C=Cc3c4c(c5cc(N6CCCCC6)c(OC)cc5c3O2)-c2ccccc2C4(C)C)cc1` [Formula (E), reference compound], the “Maximum absorption wavelength (nm)” value in data set [1] (setting [6]) and in data set [1] (setting [7]) was 481 nm each time. Also, the Maximum absorption wavelength in data set [1] (binder sheet (binder method)) and in data set [1] (setting [8]) was 481 nm throughout. Also, the “A35/A23 *100” value in data set [2] (binder sheet (binder method)) came to 70%; in data set [2] (setting [8]) it was 71%. Further, in data set [2] (binder sheet (binder method)), the “A35/A23 *100 (%)” value came out at 70%. Also, the “Temperature change rate (%)” value in data set [2] (photochromic laminate by coating method, comparative compounds, corresponds to A35/A23×100) was 71%. Further, the “A23 (-)” value in data set [3] (binder sheet (binder method)) is 1.85 -. Further, the “23°C color optical density (-)” value in data set [3] (setting [9]) is 1.81 -. For the same molecule, the Residual rate in data set [4] (binder sheet (binder method)) was 68%; in data set [4] (setting [8]) it was 51%. Also, the “Residual rate (%)” value stood at 68% in data set [4] (binder sheet (binder method)) and 51% in data set [4] (setting [10]). Further, the “A35 (-)” value in data set [5] (binder sheet (binder method)) was 1.30 -. Besides, the “35°C color optical density (-)” value in data set [5] (setting [9]) is 1.28 -.

Turning to `CCCOc1ccc(C2(c3ccc(OC)cc3)C=Cc3c4c(c5cc(N(C)c6ccccc6)c(C)cc5c3O2)-c2ccc(C)cc2C4(CCCCOC)CCCCOC)cc1` (stereo not shown) [Example 17 Formula (79)], the figures for the “Maximum absorption wavelength (nm)” value in data set [1] (setting [11]) and in data set [1] (setting [7]) were 562 nm and 558 nm, respectively. The entries for the “A35/A23 *100 (%)” value in data set [2] (setting [12]) and in data set [2] (setting [10]) were 69% and 67%, respectively. For the same molecule, the “A23 (-)” value in data set [3] (setting [12]) is given as 1.09 -; in data set [3] (setting [13]), 1.06 -. For the same molecule, the entries for the “Residual rate (%)” value in data set [4] (setting [12]) and in data set [4] (setting [10]) were 84% and 78%, respectively. For the same molecule, the “A35 (-)” value in data set [5] (setting [12]) is 0.75 -; in data set [5] (setting [10]), 0.71 -.

For `CCCOc1ccc(C2(c3ccc(OCCC)cc3)C=Cc3c4c(c5cc(N(c6ccc(C)cc6)c6ccc(C)cc6)c(OC)cc5c3O2)-c2ccccc2C4(CCCCOCOC)CCCCOCOC)cc1` [Example 14 Formula (71)], the “Maximum absorption wavelength (nm)” value in data set [1] (setting [6]) and in data set [1] (setting [7]) was 521 nm each time. Also, the “A35/A23 *100 (%)” value in data set [2] (binder sheet (binder method)) and in data set [2] (setting [10]) was 70% throughout. Also, the A23 (-) in data set [3] (binder sheet (binder method)) is 1.93; in data set [3] (setting [13]), 1.89 -. For the same molecule, the results for the “Residual rate (%)” value in data set [4] (binder sheet (binder method)) and in data set [4] (setting [10]) were 94% and 82%, respectively. For the same molecule, the “A35 (-)” value in data set [5] (binder sheet (binder method)) was 1.36 -; in data set [5] (setting [10]), 1.33 -.

Consider `CCCCCCCCC1(CCCCCCCC)c2cc([Si](c3ccccc3)(c3ccccc3)c3ccccc3)ccc2-c2c1c1c(c3cc(OC)c(N(c4ccccc4)c4ccccc4)cc23)OC(c2ccc(OCCC)cc2)(c2ccc(OCCC)cc2)C=C1` [Example 56 Formula (128)], for which the “Maximum absorption wavelength (nm)” value in data set [1] (setting [7]) was 508 nm. The “A35/A23 *100 (%)” value in data set [2] (setting [10]) is 69%. Besides, the “A23 (-)” value in data set [3] (setting [13]) is 1.80 -. In addition, in data set [4] (setting [10]), the “Residual rate (%)” value is on record as 81%. Moreover, the “A35 (-)” value in data set [5] (setting [10]) is reported as 1.24 -.

Turning to `CCCC1(CCC)c2ccccc2-c2c1c1c(c3cc(OC)c(N(C)c4ccccc4)cc23)OC(c2ccc(OC)cc2)(c2ccc(OC)cc2)C=C1` [Example 3 Formula (32)], the “Maximum absorption wavelength (nm)” value in data set [1] (setting [6]) worked out at 498 nm; in data set [1] (setting [11]), 502 nm; in data set [1] (setting [7]), 498 nm. In addition, the “A35/A23 *100 (%)” value turned out to be 68% in data set [2] (binder sheet (binder method)), 69% in data set [2] (setting [12]) and 68% in data set [2] (setting [10]). The “A23 (-)” value is given as 1.11 - in data set [3] (binder sheet (binder method)), 1.12 - in data set [3] (setting [12]) and 1.0897 - in data set [3] (setting [13]). The “Residual rate (%)” value in data set [4] (binder sheet (binder method)) turned out to be 97%; in data set [4] (setting [12]) it was 90%; in data set [4] (setting [10]) it was 84%. The “A35 (-)” value in data set [5] (binder sheet (binder method)) is on record as 0.76 -; in data set [5] (setting [12]), 0.77 -; in data set [5] (setting [10]) it was 0.74 -.

Consider `CCCCC1(CCCC)c2cc([Si](C)(C)C(C)(C)C)ccc2-c2c1c1c(c3cc(OC)c(N(CC)c4ccccc4)cc23)OC(c2ccc(OC)cc2)(c2ccc(OCCC)cc2)C=C1` (stereo not shown) [Example 46 Formula (99)], for which the “Maximum absorption wavelength (nm)” value in data set [1] (setting [7]) is on record as 504 nm. Moreover, in data set [2] (setting [10]), the “A35/A23 *100 (%)” value came to 70%. Besides, the “A23 (-)” value in data set [3] (setting [13]) is given as 1.29 -. Besides, the “Residual rate (%)” value in data set [4] (setting [10]) came out at 78%. Also, in data set [5] (setting [10]), the “A35 (-)” value is 0.90 -.

Consider `COc1ccc(C2(c3ccc(OC)cc3)C=Cc3c4c(c5cc(N(C)c6ccc(F)cc6)c(OC)cc5c3O2)-c2ccccc2C4(C)C)cc1` [Example 4 Formula (34)], for which the results for the “Maximum absorption wavelength (nm)” value in data set [1] (setting [6]), in data set [1] (setting [11]) and in data set [1] (setting [7]) were 496 nm, 500 nm and 496 nm, respectively. For the same molecule, the “A35/A23 *100 (%)” value in data set [2] (binder sheet (binder method)) came to 66%; in data set [2] (setting [12]) it was 67%; in data set [2] (setting [10]), 66%. Moreover, the “A23 (-)” value in data set [3] (binder sheet (binder method)) is recorded as 1.20 -; in data set [3] (setting [12]) it was 1.20 -; in data set [3] (setting [13]), 1.18 -. In addition, the “Residual rate (%)” value in data set [4] (binder sheet (binder method)) worked out at 93%; in data set [4] (setting [12]), 84%; in data set [4] (setting [10]), 80%. Besides, the “A35 (-)” value is on record as 0.79 - in data set [5] (binder sheet (binder method)), 0.81 - in data set [5] (setting [12]) and 0.78 - in data set [5] (setting [10]).

Take `COc1ccc(C2(c3ccc(OC)cc3)C=Cc3c4c(c5cc(N(C)c6ccccc6)c(OC)cc5c3O2)-c2ccccc2C4(C)C)cc1` [Example 1 Formula (28)]: the “Maximum absorption wavelength (nm)” value in data set [1] (setting [6]) amounted to 501 nm; in data set [1] (setting [11]), 505 nm; in data set [1] (setting [7]), 501 nm. The “A35/A23 *100 (%)” value was 69% in data set [2] (binder sheet (binder method)), 70% in data set [2] (setting [12]) and 69% in data set [2] (setting [10]). Besides, the “A23 (-)” value in data set [3] (binder sheet (binder method)) is given as 1.17 -; in data set [3] (setting [12]), 1.19 -; in data set [3] (setting [13]) it was 1.15 -. Moreover, the results for the “Residual rate (%)” value in data set [4] (binder sheet (binder method)), in data set [4] (setting [12]) and in data set [4] (setting [10]) were 95%, 89% and 83%, respectively. In addition, the “A35 (-)” value in data set [5] (binder sheet (binder method)) is 0.80 -; in data set [5] (setting [12]), 0.83 -; in data set [5] (setting [10]), 0.79 -.

As for `CCCOc1ccc(C2(c3ccc(OCCC)cc3)C=Cc3c4c(c5cc(N(C)c6ccc(C)cc6)c(OC)cc5c3O2)-c2ccccc2C4(CCCCOC)CCCCOC)cc1` [Example 20 Formula (85)], the “Maximum absorption wavelength (nm)” value in data set [1] (setting [6]) is 503 nm; in data set [1] (setting [11]), 507 nm; in data set [1] (setting [7]), 503 nm. Further, the “A35/A23 *100 (%)” value in data set [2] (binder sheet (binder method)), in data set [2] (setting [12]) and in data set [2] (setting [10]) was 70% each time. Further, the entries for the “A23 (-)” value in data set [3] (binder sheet (binder method)), in data set [3] (setting [12]) and in data set [3] (setting [13]) were 1.23 -, 1.24 - and 1.22 -, respectively. Besides, the “Residual rate (%)” value was determined as 93% in data set [4] (binder sheet (binder method)), 85% in data set [4] (setting [12]) and 81% in data set [4] (setting [10]). The results for the “A35 (-)” value in data set [5] (binder sheet (binder method)), in data set [5] (setting [12]) and in data set [5] (setting [10]) were 0.86 -, 0.87 - and 0.85 -, respectively.
